This is an account of results in publication PMC2921628 (Biochemistry, 2010).

The target in data set [1] is T1, cdk5/p25 (Homo sapiens, UniProt Q00535). The experiment in a line: Inhibition studies with substrate analogues and product ADP at 0.2 mM MgCl2. In kind it is biochemical. As to conditions: 0.2 mM Mg^2+.
In data set [2] the target is T1, cdk5/p25. The experiment in a line: Influence of D2O on inhibitor. To be noted: 10 µM ATP, saturating H1P; data not shown. The class given is biochemical.
Data set [3] has as its target T1, cdk5/p25. The experiment in a line: Initial velocity kinetic analysis of cdk5/p25-catalyzed H1P phosphorylation. In kind it is biochemical.
The conditions of data set [4]: cited from earlier work.
[5] abbreviates: versus variable substrate ATP (H1P fixed).
[6] abbreviates: versus variable substrate H1P (ATP fixed).

Like-named read-outs stand apart in the source and are kept apart here.

T1 sequence (Q00535 whole entry, species assumed): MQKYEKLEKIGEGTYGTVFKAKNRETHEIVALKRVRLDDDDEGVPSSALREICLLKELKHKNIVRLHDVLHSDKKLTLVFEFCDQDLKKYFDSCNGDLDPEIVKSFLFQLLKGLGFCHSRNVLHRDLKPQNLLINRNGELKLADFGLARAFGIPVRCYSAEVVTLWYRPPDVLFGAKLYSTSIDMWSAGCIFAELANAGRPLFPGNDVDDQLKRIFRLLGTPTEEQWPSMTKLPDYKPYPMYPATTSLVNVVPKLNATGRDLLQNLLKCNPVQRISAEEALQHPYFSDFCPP
T1 sequence (Q15078 99-307 partner limits assumed, species assumed): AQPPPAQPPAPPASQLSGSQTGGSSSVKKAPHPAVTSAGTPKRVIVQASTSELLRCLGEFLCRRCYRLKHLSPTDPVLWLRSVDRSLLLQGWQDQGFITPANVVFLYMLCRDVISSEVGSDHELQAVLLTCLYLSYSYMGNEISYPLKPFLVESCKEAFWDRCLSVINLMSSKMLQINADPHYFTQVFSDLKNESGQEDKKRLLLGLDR

Turning to `Nc1ncnc2c1ncn2[C@@H]1O[C@H](COP(=O)(O)OP(=O)(O)O)[C@@H](O)[C@H]1O` [ADP], the mechanism of inhibition entry is “competitive” on cdk5/p25 [1] (setting [5]) and “noncompetitive” on cdk5/p25 [1] (setting [6]).

With `Nc1ncnc2c1ncn2[C@@H]1O[C@H](COP(=O)(O)O)[C@@H](O)[C@H]1O` [AMP], on cdk5/p25 [2], the “dissociation constant from E:H1P:AMP, lowering in 85% D2O compared with water” value is “approximately 1.5 fold”. For the same compound, the “enzyme forms that inhibitor binds” value at cdk5/p25 [1] was “binds to both E and E:B complex”. Moreover, the values for the mechanism of inhibition result at cdk5/p25 [1] (setting [5]) and at cdk5/p25 [1] (setting [6]) were “competitive” and “noncompetitive”, respectively.

At cdk5/p25 [3] (KATP (KMgATP), 2.5 mM free Mg^2+), `Nc1ncnc2c1ncn2[C@@H]1O[C@H](COP(=O)(O)OP(=O)(O)OP(=O)(O)O)[C@@H](O)[C@H]1O` [ATP, Adenosine 5’-triphosphate] returned a Kd of 6.1 ± 1.5 µM. In addition, in data set [4], the “pKa for protonation of the γ-phosphate of ATP” value is reported as 4.6.

In turn, `Nc1ncnc2c1ncn2[C@@H]1O[C@H](COP(=O)(O)OP(=O)([O-])OP(=O)([O-])O)[C@@H](O)[C@H]1O.[Mg+2]` [MgATP] returned a hill coefficient at cdk5/p25 [3] (MgATP dependence of (kcat)H1P at 0.2 mM free Mg^2+ (Figure 1B)) of 1.8 ± 0.1. Also, the Kd was determined as 60 ± 20 µM on cdk5/p25 [3] (read-out: KATP (KMgATP), 0.2 mM free Mg^2+) and 6.1 ± 1.5 µM on cdk5/p25 [3] (read-out: KATP (KMgATP), 2.5 mM free Mg^2+). Further, the “dissociation constant of MgATP” value in data set [4] (used to calculate MgATP and free Mg^2+ concentrations) is 14.3 µM.
